Measured values published in PMC11807808, “In vitro gastrointestinal digestion simulation screening of novel ACEI peptides from broccoli: mechanism in high glucose-induced VSMCs dysfunction” (Frontiers in Nutrition, 2025).
Entries after “also recorded” stand apart in the source; their conditions may differ. Where no end group is shown, it is not given here.

How the values were obtained:
[1] = target: T1, Angiotensin converting enzyme (ACE) (Homo sapiens, UniProt P12821); assay: ACE inhibitory (ACEI) activity, HHL substrate, HPLC detection of hippuric acid; format: biochemical; conditions: synthetic peptides; HHL 5 mM, ACE 0.025 U/mL, 37°C 60 min, HPLC 228 nm
T1 construct: purchased Sigma–Aldrich (Shanghai) Trading Co., Ltd
T1 sequence (P12821 30-1306, species assumed): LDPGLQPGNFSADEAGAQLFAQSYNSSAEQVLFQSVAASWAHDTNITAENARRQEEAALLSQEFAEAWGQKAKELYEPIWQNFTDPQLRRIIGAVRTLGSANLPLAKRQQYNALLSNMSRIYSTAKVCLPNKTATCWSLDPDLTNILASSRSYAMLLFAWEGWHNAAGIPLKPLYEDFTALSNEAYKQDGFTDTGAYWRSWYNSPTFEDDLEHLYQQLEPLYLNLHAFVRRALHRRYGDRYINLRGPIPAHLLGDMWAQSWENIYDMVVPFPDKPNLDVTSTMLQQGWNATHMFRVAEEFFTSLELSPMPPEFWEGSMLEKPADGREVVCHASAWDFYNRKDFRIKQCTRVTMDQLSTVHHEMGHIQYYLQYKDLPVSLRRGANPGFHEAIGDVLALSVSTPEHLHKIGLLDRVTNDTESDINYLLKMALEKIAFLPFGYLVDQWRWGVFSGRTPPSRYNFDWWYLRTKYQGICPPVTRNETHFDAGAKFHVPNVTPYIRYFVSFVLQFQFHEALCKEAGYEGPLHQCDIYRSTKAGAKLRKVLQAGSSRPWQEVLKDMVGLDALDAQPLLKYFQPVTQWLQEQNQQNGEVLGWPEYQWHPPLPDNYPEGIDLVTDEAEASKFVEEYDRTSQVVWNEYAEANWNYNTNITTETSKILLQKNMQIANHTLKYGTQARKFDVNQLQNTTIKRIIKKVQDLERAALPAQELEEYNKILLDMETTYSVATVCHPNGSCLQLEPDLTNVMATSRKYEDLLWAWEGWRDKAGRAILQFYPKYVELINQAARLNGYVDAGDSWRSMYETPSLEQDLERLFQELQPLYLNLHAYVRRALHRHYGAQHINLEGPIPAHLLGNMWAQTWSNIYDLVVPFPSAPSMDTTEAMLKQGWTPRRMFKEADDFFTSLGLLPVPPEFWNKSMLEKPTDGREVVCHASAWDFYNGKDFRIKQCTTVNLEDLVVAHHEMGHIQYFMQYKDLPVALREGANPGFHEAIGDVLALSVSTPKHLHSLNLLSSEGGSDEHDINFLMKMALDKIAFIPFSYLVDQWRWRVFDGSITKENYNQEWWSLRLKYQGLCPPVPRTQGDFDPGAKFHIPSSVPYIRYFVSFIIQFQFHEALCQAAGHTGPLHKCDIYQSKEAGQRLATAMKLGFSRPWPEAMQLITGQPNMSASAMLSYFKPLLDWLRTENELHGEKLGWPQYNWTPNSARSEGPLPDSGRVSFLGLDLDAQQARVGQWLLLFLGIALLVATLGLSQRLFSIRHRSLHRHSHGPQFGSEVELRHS
Protocol: Eighty microlitres of HHL solution (5 mM) and 30 μL of sample mixture were incubated at 37°C for 5 min. Then, 40 μL of ACE solution (0.025 U/mL) was added to the mixture, followed by incubation at 37°C for 60 min. The reaction was terminated by adding 120 μL of 1 M HCl. After the addition of 700 μL of pure water, the mixture was filtered through a 0.22 μm membrane ([25]). The experiment included four groups: a control group (pure water), a negative control group (blank digestion solution), a positive control group (protein mixture), and a sample group (protein digestion solution). In the control group, HCl was added immediately after ACE.
Chromatograms were recorded via an Agilent instrument (Agilent, California, USA). Column: CAPCELL CORE AQ C18, 4.6 × 150 mm, 5 μm (Shiseido, Tokyo, Japan). Column temperature: 30°C. Flow rate: 1 mL/min. The injection volume was 100 μL. Mobile phase: 0.1% trifluoroacetic acid aqueous solution (A) and pure acetonitrile (B). Detection wavelength: 228 nm. Elution gradient: 0–10 min, 80% A/20% B. The calculation method was as follows:
Inhibitionrate(%)=[PA]c-[PA]s/[PA]c-[PA]b×100%
where [PA]c, [PA]s, and [PA]b represented the peak area of HA at 228 nm of the control group, experimental group, and blank group, respectively.

[2] = In vitro simulated gastrointestinal digestion (pepsin, trypsin): digestibility / digestion stability; format: in vitro ADME; conditions: stability under digestion conditions in vitro; pepsin pH 2.0 37°C 2 h, then trypsin pH 8.0 37°C 2 h as described for the hydrolysate; mean ± spread
Protocol: In vitro digestion simulation was performed based on the method of Hao et al. ([24]). Broccoli protein suspension (5%, w/v) was hydrolyzed with papain (1%, E/S ratio) for 6 h (pH 7.0, 55°C). After hydrolysis, inactivated at 100°C for 10 min and cooled to 25°C. Based on the method of Hao et al. ([24]), the simulated digestion of broccoli papain hydrolysate was conducted. In short, 0.1 g pepsin (pH = 2.0) was mixed with the hydrolysate and placed at 37°C for 2 h. Then 0.2 g trypsin (pH = 8.0) was added and incubated at 37°C for 2 h. After enzymatic hydrolysis, the enzyme was inactivated at 95°C for 10 min, cooled to 25°C, and the supernatant was collected. Subsequently, freeze-dried broccoli crude peptide was applied to the determination of ACEI activity.
The crude protein hydrolysis of broccoli was analyzed by high performance liquid chromatography (Agilent 1260, California, USA). The Column was XBridge Peptides BEH C18 Column 130A, 4.6 × 250 mm, 5 μm (Waters, Massachusetts, USA). Column temperature: 37°C. Flow rate: 1 mL/min. Sample size: 100 μL. Mobile phase: 0.1% trifluoroacetic acid aqueous solution (phase A) and pure acetonitrile (phase B). Detection wavelengths: 214 and 280 nm. Elution gradient: 0–5 min, 100%A/0%B; 5–25 min, 60%A/40%B; 25–26 min, 20%A/80%B; 26–31 min, 20%A/80%B; 31–32 min, 100%A/0%B; 32–37 min, 100%A/0%B.

VSMCs [3] = assay: CCK-8 cell viability of VSMCs in high glucose; format: cell-based, Sprague–Dawley rats; conditions: high glucose (HG); for VSMC proliferation / viability: peptides 0.0313-0.5 mg/mL
Protocol: (§1) Thoracic aortas from male Sprague–Dawley rats (250–300 g) were dispersed in HBSS solution, which contained 1 mg/mL collagenase II (146 U/mg, Worthington Biochemical Corp., Freehold, NJ) and 0.5 mg/mL elastase I (32 U/mg, Worthington Biochemical Corp., Freehold, NJ). The mixture was digested for 90 min to obtain the appropriate VSMCs. The obtained VSMCs were subsequently cultured in DMEM supplemented with 10% FBS, 2 mmol/L glutamine, and 1 g/L D-glucose at 37°C in a humidified atmosphere of 5% CO2. The purity of the VSMCs was evaluated by the smooth muscle cell-specific marker SM22α (>97% for the stained cells). All the VSMCs used for the experiments were between the 3rd and 8th passages.
The cells (4 × 10^3 cells/well) were seeded into 96-well plates and cultured overnight. The cells were subjected to serum deprivation for 24 h. Then, the culture mixture was removed, and 100 μL of free FBS culture mixture was added to the above culture mixture. Ten microliters of CCK-8 solution was added to each well. The plates were read with a BioTek Epoch 2 Microplate Spectrophotometer (Agilent Technologies, California, USA). The experiment was organized into seven groups, which included a normal group, a high glucose group, and peptide segments: HLEVR, LTEVR, LEHGF, HLVNK, and LLDGR. These segments were tested at concentrations of 0.0313, 0.0625, 0.125, 0.25, and 0.5 mg/mL.

Ang II = Ang II level in VSMCs cultured in high glucose (ELISA); format: cell-based, Sprague–Dawley rats; conditions: high glucose (HG) + peptide
Protocol: as §1
The cells (2 × 10^4 cells per well) were first seeded into 24-well plates overnight. The supernatants were collected to measure the expression levels of Ang II via angiotensin II ELISA kits (ER1637, FineTest, Wuhan, China) according to the manufacturer's protocol. The absorbance of each well at 450 nm was determined via a multimode plate reader (BioTek Epoch2, Santa Clara, US).

VSMCs [4] = assay: Western blot of protein expression in VSMCs (Ang II-induced or high glucose); format: cell-based, Sprague–Dawley rats; conditions: for ACE expression / expression of PCNA, MMP2, Bcl2 and Bax: VSMCs in high glucose (HG) + peptide
Protocol: as §1
Protein was extracted with RIPA buffer. Equal amounts of protein were separated via 8–10% SDS–PAGE (ACE, Changzhou, China) and then transferred to 0.22 μm PVDF membranes (Millipore, Bedford, MA, USA). The membranes were blocked with 5% skim milk and incubated overnight with the appropriate primary antibodies. HRP-conjugated secondary antibodies were then applied for binding and visualization through Western blot luminol reagent. Densitometry quantification was performed with ImageJ-V1.8.0.

Caco-2 cells = assay: Caco-2 cell monolayer transport model (absorption simulation); format: in vitro ADME; conditions: Caco-2 monolayer integrity marker, 12-well inserts, TEER 468.09 ± 37.54 Ω/cm^2
Protocol: Caco-2 cells were obtained from the Cell Bank of the Chinese Academy of Sciences. The cells were cultured in Dulbecco's modified Eagle's medium (DMEM) supplemented with 20% FBS and 1% penicillin/streptomycin (P/S) at 37°C and 5% CO2 in a humidified incubator.
Caco-2 cells were seeded in each chamber of a 12-well plate, which was equipped with cell culture inserts ([26]). The transepithelial electrical resistance (TEER) across the monolayer was measured every 2 days via a cell resistance meter (RE1600, Beijing Jegon Instrumentation Co., Ltd.). The integrity of the cell monolayer was assessed with fluorescein isothiocyanate (FITC). TEER values > 350 Ω/cm^2 were considered to indicate successful construction and validation of the Caco-2 cell transport model. The FITC permeability was < 5 × 10^−[…], indicating the integrity of the cell monolayer.
Broccoli protease hydrolysate was added to the apical (AP) side. After 120 min, the media from both the AP and basolateral (BL) sides were collected for subsequent analysis. The wells without cells or samples served as the control group, whereas the wells without samples served as the blank group.

Substance: HLEVR [HLEVR]
- IC50 [1]: 3.19 ± 0.23 mM
- Digestion stability (%) [2]: 94.27 ± 2.64%

Substance: HLVNK [HLVNK]
- VSMC proliferation / viability (VSMCs [3]): effectively reduce VSMC viability
- IC50 [1]: 0.06 ± 0.01 mM
- Ang II levels in VSMCs (Ang II): significantly inhibit intracellular Ang II levels
- Ang II levels in VSMCs (Ang II; listed as HLLVNK): significantly reduced Ang II levels
- Digestion stability (%) [2]: 95.78 ± 3.73%
- ACE expression (VSMCs [4]): modulated ACE expression
- expression of PCNA, MMP2, Bcl2 and Bax (VSMCs [4]): significantly restored the expression of these proteins

Substance: LEHGF [LEHGF]
- IC50 [1]: 0.64 ± 0.02 mM
- Digestion stability (%) [2]: 97.85 ± 6.31%

Substance: LLDGR [LLDGR]
- IC50 [1]: 2.81 ± 0.12 mM

Substance: LTEVR [LTEVR]
- cell viability of VSMCs (VSMCs [3]; peptide 0.5 mg/mL): not significant
- VSMC proliferation / viability (VSMCs [3]): effectively reduce VSMC viability
- IC50 [1]: 17.1 ± 1.37 mM
- Ang II levels in VSMCs (Ang II): significantly reduced Ang II levels; also recorded: significantly inhibit intracellular Ang II levels
- Digestion stability (%) [2]: 98.82 ± 3.92%
- ACE expression (VSMCs [4]): modulated ACE expression
- expression of PCNA, MMP2, Bcl2 and Bax (VSMCs [4]): significantly restored the expression of these proteins

Substance: angiotensin II (DRVYIHPF; Angiotensin-2; UniProt P01019 25-32, looked up) [Ang II, angiotensin II, used to induce VSMC dysfunction]
- downregulation of ACE2 expression (VSMCs [4]; VSMCs treated with Ang II): 15.60 ± 0.028%
- upregulation of ACE expression (VSMCs [4]; VSMCs treated with Ang II): 136.50 ± 0.017%
- upregulation of AT1R expression (VSMCs [4]; VSMCs treated with Ang II): 27.31 ± 0.020%
- upregulation of BCL2 expression (VSMCs [4]; VSMCs treated with Ang II): 40.26 ± 0.051%
- upregulation of ERK1/2/Total ERK (VSMCs [4]; VSMCs treated with Ang II): 128.17 ± 0.028%
- upregulation of MMP2 expression (VSMCs [4]; VSMCs treated with Ang II): 14.97 ± 0.044%
- upregulation of PCNA expression (VSMCs [4]; VSMCs treated with Ang II): 49.56 ± 0.01%
- upregulation of pp38/Total p38 (VSMCs [4]; VSMCs treated with Ang II): 14.58 ± 0.041%

Substance: lucifer yellow
- apparent permeability coefficient (Papp) (Caco-2 cells): 2.87 ± 0.53 × 10^−7 cm^2/s
